The values below come from patent US12679860B2, “C-terminal HSP90 inhibitors” (UNIVERSITY OF KANSAS, priority 2012, dated 2026).

As usually defined, the EC50 is the midpoint of the concentration-response curve. Usually viability stands for a per cent measure of how many cells are alive, often set against a control.

Test [1] has as its system embryonic dorsal root ganglion (DRG) sensory neuron cultures. Nature of the test: Glucotoxicity assay: cell viability (calcein AM) of DRG sensory neurons under glucose-induced toxicity. In kind it is cell-based, Sprague Dawley rat. Conditions: for EC50 / viability at 1 µM: Rattus norvegicus, Neuron; for EC50: 0.1-1000 nM novologue overnight, then 4 hrs of hyperglycemia, mean±SEM (n=3-8), read-out: EC50 for protection against glucose-induced toxicity; for viability at 1 µM: glucose + DMSO was 54% ± 2. The method, then: DRG sensory neurons were incubated in the absence or presence of 0.1-1000 nM of the indicated novologue overnight and then subjected to 4 hrs of hyperglycemia.
The ganglia were sedimented at 1,000×g for 5 min, resuspended in growth media [phenol red free Neurobasal medium (Gibco, Grand Island, NY) containing 25 mM glucose, 1X B-27 additive, 50 ng/ml NGF (Harlan Bioscience, Indianapolis, IN), 4 mM glutamine, 100 U/mL penicillin and 100 μg/mL streptomycin] and triturated with a fire-polished glass pipette. The cells were cultured on collagen-coated (0.1 mg/mL collagen followed by overnight air drying in a laminar flow hood) black-walled 96-well plates (Corning Incorporated Corning, NY) at a seeding density of 2-3×10^4 cells per well. DRG neurons were re-fed the next day with fresh growth media containing 40 μM fluorodeoxyuridine and 10 μM cytosine β-D-arabinoside (both from Sigma Aldrich, St. Louis, MO) for 2 days to remove proliferating cells. Experiments were performed on DRG neurons on the third day in culture after placing the cells in fresh growth medium. […]
DRG neurons were incubated overnight with the test compounds in the presence of Neurobasal medium, 50 ng/ml NGF and antibiotics only. In order to monitor the efficiency of the compounds in protecting DRG neurons against glucotoxicity, Calcein AM (Invitrogen, Carlsbad, CA) was utilized to measure cell viability. Hydrolysis of calcein AM to a fluorescent product can only occur in live cells. Excess glucose was added to the cultures for 4 hrs and cell viability was measured by incubating the cells with 2 μM calcein AM for 30 min in the dark at 37° C. Fluorescence was then measured using a plate reader with excitation and emission wavelengths set to 485 nm and 520 nm, respectively. The arbitrary fluorescence readings were normalized to the total amount of protein from each respective well of the neuronal cultures. The protein concentrations in each well were determined using the DC protein assay (Bio-Rad). Significant differences in the efficacy of the novologues for increasing cell viability were determined using a Kruskal-Wallis non-parametric ANOVA and Dunn's post-test.

The test system of the next test is Hsp70. Nature of the test: Immunoblot analysis of induction of Hsp70 in DRG sensory neurons. The following applies: 24 hours incubation, then 4 hours of glucotoxic stress; Hsp70 normalized to β-actin. The format is cell-based, Sprague Dawley rat. The method, then:
DRG sensory neurons were incubated in the presence of DMSO (Cntrl) or 10-1000 nM of the indicated novologue overnight and then subjected to 4 hrs of hyperglycemia. The neurons were harvested and Hsp70 and β-actin levels were determined by immunoblot analysis. Band intensity was quantified using Image J, Hsp70 expression was normalized to the level of β-actin.
Since it was previously shown that the cytoprotective activity manifested by KU-32 requires Hsp70, the ability of 11b and 11n to induce Hsp70 was determined relative to KU-32. Increasing concentrations of KU-32, 11n, and 11b were incubated with DRG sensory neurons for 24 hours before the cells were subjected to 4 hours of glucotoxic stress. Hsp70 levels were examined by performing immunoblot analysis with the cellular lysates (FIG. 5). 11n and 11b induced Hsp70 levels at similar concentrations (10 nM) as those needed for neuroprotection.
DRG from embryonic day 15-18 Sprague Dawley rat pups were harvested into Leibovitz's L15 medium (L15) and dissociated with 0.25% trypsin for 30 min at 37° C. […]
Background: A western blot detects proteins with antibodies after separation by electrophoresis.

Setting [2] is: Table 1, 1 μM of each novologue + 20 mM excess glucose.
Setting [3] is: 1 μM novologue + 20 mM excess glucose.
Where [4] appears, read: Table 2 cyclohexene analogues, 1 μM novologue + 20 mM excess glucose.

Structures are written as SMILES.

For the compound `CO[C@@H]1[C@@H](O)[C@@H](O)C(Oc2ccc(CCNC(C)=O)c(-c3ccc4c(c3)OCO4)c2)OC1(C)C` (stereo partly drawn) [11n, N-(2-(benzo[d][1,3]dioxol-5-yl)-4-(((3R,4S,5R)-3,4-dihydroxy-5-methoxy-6,6-dimethyltetrahydro-2H-pyran-2-yl)oxy)phenethyl)acetamide], the 50% effective concentration (EC50) in test [1] was 18.4 ± 3.2 nM. The viability at 1 µM in test [1] (setting [2]) was 83%. The “concentration at which Hsp70 levels were induced” value with Hsp70 amounted to 10 nM.
For the compound `COc1cccc(-c2cc(OC3OC(C)(C)[C@H](OC)[C@@H](O)[C@H]3O)ccc2CCNC(C)=O)c1` (stereo partly drawn) [11j, N-(2-(5-(((3R,4S,5R)-3,4-dihydroxy-5-methoxy-6,6-dimethyltetrahydro-2H-pyran-2-yl)oxy)-3′-methoxy-[1,1′-biphenyl]-2-yl)ethyl)acetamide], the viability at 1 µM in test [1] (setting [2]) was 78%.
Consider `CO[C@@H]1[C@@H](O)[C@@H](O)C(Oc2ccc(CCNC(C)=O)c(-c3cccc(C(F)(F)F)c3)c2)OC1(C)C` (stereo partly drawn) [11f, N-(2-(5-(((3R,4S,5R)-3,4-dihydroxy-5-methoxy-6,6-dimethyltetrahydro-2H-pyran-2-yl)oxy)-3′-(trifluoromethyl)-[1,1′-biphenyl]-2-yl)ethyl)acetamide], for which, in test [1] (setting [3]), the “protection against glucose-induced toxicity (in words)” value (from here on “protection”) is “showed significant protection against glucotoxicity”. Further, in test [1], the EC50 is 188 ± 43.5 nM. Besides, in test [1] (setting [2]), the viability at 1 µM is 83%.
For the compound `CO[C@@H]1[C@@H](O)[C@@H](O)C(Oc2ccc(CCNC(C)=O)c(-c3cccc(C)c3)c2)OC1(C)C` (stereo partly drawn) [11k, N-(2-(5-(((3R,4S,5R)-3,4-dihydroxy-5-methoxy-6,6-dimethyltetrahydro-2H-pyran-2-yl)oxy)-3′-methyl-[1,1′-biphenyl]-2-yl)ethyl)acetamide], in test [1] (setting [2]), the viability at 1 µM was 82%.
As for `CO[C@@H]1[C@@H](O)[C@@H](O)[C@H](Oc2ccc(C3CC=CCC3NC(C)=O)c(-c3cccc(F)c3)c2)OC1(C)C` (mixture of isomers) [20a, N-(4′-(((3R,4S,5R)-3,4-dihydroxy-5-methoxy-6,6-dimethyltetrahydro-2H-pyran-2-yl)oxy)-3″-fluoro-1,2,3,6-tetrahydro-[1,1′: 2′,1″-terphenyl]-2-yl)acetamide], the viability at 1 µM in test [1] (setting [4]) was 78%.
For `CO[C@@H]1[C@@H](O)[C@@H](O)C(Oc2ccc(CCNC(C)=O)c(-c3cccc(CN4CCOCC4)c3)c2)OC1(C)C` (stereo partly drawn) [11l, N-(2-(5-(((3R,4S,5R)-3,4-dihydroxy-5-methoxy-6,6-dimethyltetrahydro-2H-pyran-2-yl)oxy)-3′-(morpholinomethyl)-[1,1′-biphenyl]-2-yl)ethyl)acetamide], in test [1] (setting [2]), the viability at 1 µM is 83%.
In the case of `CO[C@@H]1[C@@H](O)[C@@H](O)C(Oc2ccc(CCNC(C)=O)c(-c3ccccc3Cl)c2)OC1(C)C` (stereo partly drawn) [11d, N-(2-(2′-chloro-5-(((3R,4S,5R)-3,4-dihydroxy-5-methoxy-6,6-dimethyltetrahydro-2H-pyran-2-yl)oxy)-[1,1′-biphenyl]-2-yl)ethyl)acetamide], the “protection” value in test [1] (setting [3]) is on record as “showed significant protection against glucose-induced cell death”. The viability at 1 µM in test [1] (setting [2]) is 71%.
The matching figures for `CO[C@@H]1[C@@H](O)[C@@H](O)C(Oc2ccc(CCNC(C)=O)c(-c3cccnc3)c2)OC1(C)C` (stereo partly drawn) [11o, N-(4-(((3R,4S,5R)-3,4-dihydroxy-5-methoxy-6,6-dimethyltetrahydro-2H-pyran-2-yl)oxy)-2-(pyridin-3-yl)phenethyl)acetamide]: “unable to protect against glucose-induce toxicity” and 61%.
Regarding `CO[C@@H]1[C@@H](O)[C@@H](O)C(Oc2ccc(CCNC(C)=O)c(-c3ccccc3SC)c2)OC1(C)C` (stereo partly drawn) [11h, N-(2-(5-(((3R,4S,5R)-3,4-dihydroxy-5-methoxy-6,6-dimethyltetrahydro-2H-pyran-2-yl)oxy)-2′-(methylthio)-[1,1′-biphenyl]-2-yl)ethyl)acetamide], the concentration for a half-maximal effect (EC50) in test [1] was 384 ± 108 nM. Moreover, the viability at 1 µM in test [1] (setting [2]) was 83%. Also, the “EC50 fold greater than KU-32” value in test [1] (protection against glucose-induced toxicity) is listed as “approximately 1.6 fold”.
For `CO[C@@H]1[C@@H](O)[C@@H](O)C(Oc2ccc(CCNC(C)=O)c(-c3ccncc3)c2)OC1(C)C` (stereo partly drawn) [11p, N-(4-(((3R,4S,5R)-3,4-dihydroxy-5-methoxy-6,6-dimethyltetrahydro-2H-pyran-2-yl)oxy)-2-(pyridin-4-yl)phenethyl)acetamide], the viability at 1 µM in test [1] (setting [2]) is 81%.
On to `CO[C@@H]1[C@@H](O)[C@@H](O)C(Oc2ccc(CCNC(C)=O)c(-c3cccc(Cl)c3)c2)OC1(C)C` (stereo partly drawn) [11e, N-(2-(3′-chloro-5-(((3R,4S,5R)-3,4-dihydroxy-5-methoxy-6,6-dimethyltetrahydro-2H-pyran-2-yl)oxy)-[1,1′-biphenyl]-2-yl)ethyl)acetamide], for which the “protection” value in test [1] (setting [3]) is given as “showed significant protection against glucotoxicity”. Further, the viability at 1 µM in test [1] (setting [2]) was 90%.
Turning to `COc1ccccc1-c1cc(OC2OC(C)(C)[C@H](OC)[C@@H](O)[C@H]2O)ccc1CCNC(C)=O` (stereo partly drawn) [11i, N-(2-(5-(((3R,4S,5R)-3,4-dihydroxy-5-methoxy-6,6-dimethyltetrahydro-2H-pyran-2-yl)oxy)-2′-methoxy-[1,1′-biphenyl]-2-yl)ethyl)acetamide], the viability at 1 µM in test [1] (setting [2]) is 92%.
The same measure, in the same setting: the figure for `CO[C@@H]1[C@@H](O)[C@@H](O)C(Oc2ccc(CCNC(C)=O)c(-c3ccccc3)c2)OC1(C)C` (stereo partly drawn) [11a, N-(2-(5-(((3R,4S,5R)-3,4-dihydroxy-5-methoxy-6,6-dimethyltetrahydro-2H-pyran-2-yl)oxy)-[1,1′-biphenyl]-2-yl)ethyl)acetamide] is 76%.
Consider `CO[C@@H]1[C@@H](O)[C@@H](O)C(Oc2ccc(CCNC(C)=O)c(-c3ccc(F)cc3)c2)OC1(C)C` (stereo partly drawn) [11c, N-(2-(5-(((3R,4S,5R)-3,4-dihydroxy-5-methoxy-6,6-dimethyltetrahydro-2H-pyran-2-yl)oxy)-4′-fluoro-[1,1′-biphenyl]-2-yl)ethyl)acetamide], for which the “protection” value in test [1] (setting [3]) is recorded as “showed significant protection against glucose-induced cell death”. Further, the viability at 1 µM in test [1] (setting [2]) is 75%.
Regarding `CO[C@@H]1[C@@H](O)[C@@H](O)[C@H](Oc2ccc(C3CC=CCC3NC(C)=O)c(-c3cccc(C(F)(F)F)c3)c2)OC1(C)C` (mixture of isomers) [20b, N-(4′-(((3R,4S,5R)-3,4-dihydroxy-5-methoxy-6,6-dimethyltetrahydro-2H-pyran-2-yl)oxy)-3″-(trifluoromethyl)-1,2,3,6-tetrahydro-[1,1′: 2′,1″-terphenyl]-2-yl) acetamide], the viability at 1 µM in test [1] (setting [4]) was 69%.
In the case of `CO[C@@H]1[C@@H](O)[C@@H](O)C(Oc2ccc(CCNC(C)=O)c(-c3ccc(C(F)(F)F)cc3)c2)OC1(C)C` (stereo partly drawn) [11g, N-(2-(5-(((3R,4S,5R)-3,4-dihydroxy-5-methoxy-6,6-dimethyltetrahydro-2H-pyran-2-yl)oxy)-4′-(trifluoromethyl)-[1,1′-biphenyl]-2-yl)ethyl)acetamide], in test [1] (setting [3]), the “protection” value is recorded as “showed significant protection against glucose-induced cell death”. Moreover, in test [1] (setting [2]), the viability at 1 µM was 74%.
As to `CO[C@@H]1[C@@H](O)[C@@H](O)C(Oc2ccc(CCNC(C)=O)c(-c3ccc(O)cc3)c2)OC1(C)C` (stereo partly drawn) [11m, N-(2-(5-(((3R,4S,5R)-3,4-dihydroxy-5-methoxy-6,6-dimethyltetrahydro-2H-pyran-2-yl)oxy)-4′-hydroxy-[1,1′-biphenyl]-2-yl)ethyl)acetamide], the viability at 1 µM in test [1] (setting [2]) is 67%.
